Source: ChEMBL document CHEMBL5120857, “Rational design, synthesis and biological evaluation of dual PARP-1/2 and TNKS1/2 inhibitors for cancer therapy” (Eur J Med Chem, 2022)
pIC50: −log10 of the molar value.

Tests used:
[1] = Toxicity in […] assessed as morphological changes in colon at 500 mg/kg, ip by H&E staining based histopathological analysis; assay type: organism-based; conditions: in vivo
HCT-116 [2] = experiment: Induction of cell cycle arrest in human HCT-116 cells assessed as S phase cells at 5 uM incubated for 3 days by propidium iodide staining based flow cytometry (reference value: 11.26 %); assay type: functional; conditions: time 3 day
HCT-116 [3] = experiment: Induction of cell cycle arrest in human HCT-116 cells assessed as G0/G1 phase cells at 5 uM incubated for 3 days by propidium iodide staining based flow cytometry (reference value: 68.35 %); assay type: functional; conditions: time 3 day
[4] = Toxicity in […] assessed as rat death administered as single dose at 500 mg/kg, ip; assay type: organism-based; conditions: in vivo
MDA-MB-231 = experiment: Antiproliferative activity against human MDA-MB-231 cells assessed as inhibition of cell growth incubated for 7 days by MTT assay; assay type: functional, cell-based; conditions: MDA-MB-231, 168 h
[5] = molecular target: T1, Poly [ADP-ribose] polymerase tankyrase-1 (Homo sapiens) (UniProt O95271); conditions: dose 10.0 nM, time 1.0 hrs
T1 sequence (whole entry): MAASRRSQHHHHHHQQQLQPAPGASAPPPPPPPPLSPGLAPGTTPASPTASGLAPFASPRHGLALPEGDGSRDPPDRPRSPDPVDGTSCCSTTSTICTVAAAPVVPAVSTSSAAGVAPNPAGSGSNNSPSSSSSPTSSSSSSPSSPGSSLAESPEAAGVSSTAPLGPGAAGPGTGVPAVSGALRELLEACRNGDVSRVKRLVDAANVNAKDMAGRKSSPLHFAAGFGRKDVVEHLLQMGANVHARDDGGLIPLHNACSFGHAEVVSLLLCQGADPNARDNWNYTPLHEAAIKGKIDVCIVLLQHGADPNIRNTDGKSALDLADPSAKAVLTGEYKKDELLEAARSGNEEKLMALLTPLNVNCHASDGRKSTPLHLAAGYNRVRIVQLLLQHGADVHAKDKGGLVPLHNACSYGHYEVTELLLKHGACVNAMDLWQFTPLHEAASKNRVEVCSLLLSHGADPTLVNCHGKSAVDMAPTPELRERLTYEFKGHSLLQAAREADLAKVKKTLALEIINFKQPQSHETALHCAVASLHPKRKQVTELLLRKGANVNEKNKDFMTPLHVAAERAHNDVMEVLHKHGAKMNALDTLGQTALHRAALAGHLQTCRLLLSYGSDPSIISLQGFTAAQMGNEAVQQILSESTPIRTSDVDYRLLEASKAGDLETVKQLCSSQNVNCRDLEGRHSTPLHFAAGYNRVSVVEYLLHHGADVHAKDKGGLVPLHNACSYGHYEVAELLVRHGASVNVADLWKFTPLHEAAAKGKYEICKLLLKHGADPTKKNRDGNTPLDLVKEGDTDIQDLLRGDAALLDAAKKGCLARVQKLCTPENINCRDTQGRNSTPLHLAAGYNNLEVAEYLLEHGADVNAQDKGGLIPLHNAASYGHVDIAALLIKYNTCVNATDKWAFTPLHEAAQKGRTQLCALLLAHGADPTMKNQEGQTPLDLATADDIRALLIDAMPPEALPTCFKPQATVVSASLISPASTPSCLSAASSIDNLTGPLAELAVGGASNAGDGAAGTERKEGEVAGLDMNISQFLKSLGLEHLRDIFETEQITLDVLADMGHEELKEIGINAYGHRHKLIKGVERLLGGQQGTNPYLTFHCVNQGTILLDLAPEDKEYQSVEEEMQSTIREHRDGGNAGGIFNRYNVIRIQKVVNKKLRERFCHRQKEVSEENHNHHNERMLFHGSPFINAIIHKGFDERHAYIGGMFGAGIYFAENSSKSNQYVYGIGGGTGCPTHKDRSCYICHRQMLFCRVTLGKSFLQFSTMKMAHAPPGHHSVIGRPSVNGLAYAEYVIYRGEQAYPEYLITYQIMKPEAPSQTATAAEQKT

[6] = Toxicity in […] assessed as morphological changes in jejunum at 500 mg/kg, ip by H&E staining based histopathological analysis; assay type: organism-based; conditions: in vivo
HCT-116 [7] = experiment: Induction of cell cycle arrest in human HCT-116 cells assessed as S phase cells at 1 uM incubated for 3 days by propidium iodide staining based flow cytometry (reference value: 11.26 %); assay type: functional; conditions: time 3 day
HCT-116 [8] = experiment: Induction of cell cycle arrest in human HCT-116 cells assessed as G2/M phase cells at 1 uM incubated for 3 days by propidium iodide staining based flow cytometry (reference value: 68.35 %); assay type: functional; conditions: time 3 day
[9] = Toxicity in […] assessed as morphological changes in ileum at 500 mg/kg, ip by H&E staining based histopathological analysis; assay type: organism-based; conditions: in vivo
[10] = Cytotoxicity against mouse AML12 cells assessed as reduction in cell viability incubated for 7 days by MTT assay; assay type: toxicity, cell-based; conditions: time 7 day
[11] = molecular target: T2, Protein mono-ADP-ribosyltransferase PARP10 (Homo sapiens, UniProt Q53GL7); experiment: Inhibition of PARP-10 (unknown origin)
T2 sequence (Q53GL7 whole entry): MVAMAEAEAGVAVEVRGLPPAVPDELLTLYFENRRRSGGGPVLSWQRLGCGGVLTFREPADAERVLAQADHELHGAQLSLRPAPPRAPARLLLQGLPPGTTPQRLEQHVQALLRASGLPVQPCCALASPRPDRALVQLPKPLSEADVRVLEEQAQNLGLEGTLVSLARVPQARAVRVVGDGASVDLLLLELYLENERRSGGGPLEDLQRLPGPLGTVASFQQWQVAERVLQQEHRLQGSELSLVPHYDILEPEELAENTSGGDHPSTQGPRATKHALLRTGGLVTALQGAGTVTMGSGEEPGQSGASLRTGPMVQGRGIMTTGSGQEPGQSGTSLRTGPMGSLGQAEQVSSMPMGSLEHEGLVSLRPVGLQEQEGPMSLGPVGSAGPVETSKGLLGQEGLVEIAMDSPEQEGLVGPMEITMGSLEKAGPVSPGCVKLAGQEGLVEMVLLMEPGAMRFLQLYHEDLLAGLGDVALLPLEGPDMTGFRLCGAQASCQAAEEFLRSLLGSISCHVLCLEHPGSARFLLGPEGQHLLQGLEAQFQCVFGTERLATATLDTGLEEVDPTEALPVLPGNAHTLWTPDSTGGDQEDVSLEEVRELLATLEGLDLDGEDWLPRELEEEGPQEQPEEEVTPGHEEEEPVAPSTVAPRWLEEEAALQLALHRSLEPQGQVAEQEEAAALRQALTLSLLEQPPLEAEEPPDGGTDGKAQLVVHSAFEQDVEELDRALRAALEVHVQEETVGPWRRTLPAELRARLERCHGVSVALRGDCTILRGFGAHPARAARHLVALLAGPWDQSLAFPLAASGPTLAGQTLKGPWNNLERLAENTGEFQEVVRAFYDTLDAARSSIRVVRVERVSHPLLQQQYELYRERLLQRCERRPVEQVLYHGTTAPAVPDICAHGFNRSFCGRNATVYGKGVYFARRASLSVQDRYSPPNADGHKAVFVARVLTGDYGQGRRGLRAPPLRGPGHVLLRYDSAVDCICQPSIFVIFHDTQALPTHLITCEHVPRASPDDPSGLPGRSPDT

In the case of `COc1ccc(NC(=O)c2ccc(NC(=O)N3CCN(C(=O)c4cc(Cc5n[nH]c(=O)c6ccccc56)ccc4F)CC3)cc2)cc1`, the Activity [1] was “Non-Toxic”, the Activity (HCT-116 [2]) was 4.19% and the Activity (HCT-116 [3]) was 41.21%. For the same compound, the Activity [4] was “Non-Toxic”, the pIC50 (MDA-MB-231) was 6.06 and the inhibition [5] was 28%. The Activity [6] was “Non-Toxic”, the Activity (HCT-116 [7]) was 9.31% and the Activity (HCT-116 [8]) was 31.42%. The Activity [9] was “Non-Toxic”, the CC50 at 168 h [10] was 117 µM and the pIC50 [11] was 6.85.
